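The compound was tested at five concentrations on cells cultured in 96-well plates, with a 48-hour exposure period. GI50 marks 50% less growth.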 Activity calls are given as the source filed them. No stated cut-off is given here; in the data, active = GI50 up to about 1.1 µM and inactive = higher.
Assays:
Test in all cases: NCI anticancer screen, dose series, 48 h
MOLT-4 = tested on: MOLT-4
MCF7 = tested on: MCF7
HCT-15 = tested on: HCT-15
DU-145 = tested on: DU-145
786-0 = tested on: 786-0
NCI-H23 = tested on: NCI-H23
HOP-92 = tested on: HOP-92
ACHN = tested on: ACHN
Hs-578T = tested on: Hs-578T
LOX IMVI = tested on: LOX IMVI
UO-31 = tested on: UO-31
UACC-257 = tested on: UACC-257
CAKI-1 = tested on: CAKI-1
CCRF-CEM = tested on: CCRF-CEM
RPMI-8226 = tested on: RPMI-8226
OVCAR-3 = tested on: OVCAR-3
A498 = tested on: A498
HCC 2998 = tested on: HCC 2998
KM12 = tested on: KM12
OVCAR-4 = tested on: OVCAR-4

SMILES	GI50 (MOLT-4)	GI50 (MCF7)	GI50 (HCT-15)	GI50 (DU-145)	GI50 (786-0)	GI50 (NCI-H23)	GI50 (HOP-92)	GI50 (ACHN)	GI50 (Hs-578T)	GI50 (LOX IMVI)	GI50 (UO-31)	GI50 (UACC-257)	GI50 (CAKI-1)	GI50 (CCRF-CEM)	GI50 (RPMI-8226)	GI50 (OVCAR-3)	GI50 (A498)	GI50 (HCC 2998)	GI50 (KM12)	GI50 (OVCAR-4)
O=[N+]([O-])c1ccccc1S(=O)(=O)c1ccccc1[N+](=O)[O-]	> 100 µM (inactive)	> 100 µM (inactive)	> 100 µM	> 100 µM (inactive)	64.6 µM (inactive)	74.5 µM (inactive)	32.4 µM (inactive)	> 90.8 µM (inactive)	32.4 µM (inactive)	> 100 µM (inactive)	> 82.2 µM (inactive)	> 100 µM (inactive)	> 100 µM (inactive)	> 100 µM (inactive)	> 92.7 µM (inactive)	> 100 µM (inactive)	> 87.7 µM (inactive)	> 100 µM (inactive)	> 72.3 µM (inactive)	> 100 µM (inactive)
O=C(O)c1ccc(C(c2c(O)oc3ccccc3c2=O)c2c(O)oc3ccccc3c2=O)cc1	> 100 µM (inactive)	> 100 µM (inactive)	> 100 µM	> 100 µM (inactive)	> 100 µM (inactive)	59.7 µM (inactive)	2.82 µM (inactive)	> 100 µM (inactive)	5 µM (inactive)	> 100 µM (inactive)	14.2 µM (inactive)	> 100 µM (inactive)	> 100 µM (inactive)	25.2 µM (inactive)	1.02 µM (active)	> 100 µM (inactive)	2.92 µM (inactive)	29.3 µM (inactive)	> 100 µM (inactive)	
Brc1ccc(C2(N3CCCCC3)CCCCC2)s1	16.4 µM (inactive)	30.9 µM (inactive)		56.6 µM (inactive)	> 100 µM (inactive)	37.3 µM (inactive)	19.7 µM (inactive)	51.1 µM (inactive)	36.1 µM (inactive)	11.7 µM (inactive)	30.8 µM (inactive)	29.8 µM (inactive)	> 100 µM (inactive)	18.3 µM (inactive)	19.6 µM (inactive)	38.7 µM (inactive)	66.7 µM (inactive)	15.7 µM (inactive)	28.4 µM (inactive)	40.7 µM (inactive)
O=C(NCCCc1cn[nH]c(=O)n1)c1cccc2nc3ccccc3nc12	33.3 µM (inactive)	> 100 µM (inactive)	> 100 µM	63 µM (inactive)	40.7 µM (inactive)	> 100 µM (inactive)	75 µM (inactive)	31.6 µM (inactive)	> 100 µM (inactive)	> 100 µM (inactive)		> 100 µM (inactive)	> 100 µM (inactive)	> 100 µM (inactive)	> 100 µM (inactive)	> 100 µM (inactive)	> 100 µM (inactive)	> 100 µM (inactive)	> 100 µM (inactive)	> 100 µM (inactive)
C[C@]12CC(c3ccccc3O1)C(C(N)=O)C(=O)N2 (stereo not given in full)	> 100 µM (inactive)	> 100 µM (inactive)	> 100 µM	> 100 µM (inactive)	> 100 µM (inactive)	> 100 µM (inactive)	> 100 µM (inactive)	> 100 µM (inactive)	> 100 µM (inactive)	> 100 µM (inactive)		> 100 µM (inactive)	> 100 µM (inactive)	> 100 µM (inactive)	> 100 µM (inactive)	> 100 µM (inactive)	> 100 µM (inactive)	> 100 µM (inactive)	> 100 µM (inactive)	> 100 µM (inactive)
Cc1ccc(C)c2c1n1c(=O)n(C)c(=O)n21		> 100 µM (inactive)	> 100 µM	> 100 µM (inactive)	> 100 µM (inactive)	> 100 µM (inactive)	> 100 µM (inactive)	> 100 µM (inactive)	> 100 µM (inactive)	> 100 µM (inactive)	> 100 µM (inactive)	> 100 µM (inactive)	> 100 µM (inactive)	> 100 µM (inactive)	> 100 µM (inactive)	> 100 µM (inactive)	> 100 µM (inactive)	> 100 µM (inactive)	> 100 µM (inactive)	> 100 µM (inactive)

From ChEMBL document CHEMBL1201862, “PubChem BioAssay data set” (2004)
